Laboratory results: patent publication US12486237B2, “Polymorphic form of (-)-cibenzoline succinate” (CELLTRION INC., priority 2020, dated 2025)
Entries after “also recorded” stand apart in the source; their conditions may differ.

How the values were obtained:
Assay type in all cases: physicochemical
[1] = Long-term storage stability at 60° C. evaluated by HT-XRPD, DSC, TGMS and UPLC
Procedure: The high-throughput XRD of the crystalline form was analyzed under the following conditions. • Manufacturer: Bruker, USA • Model: General Area Detector Diffraction System (GADDS) • Measurement temperature: 25° C. (RT) • 2θ measurement range: 1.5 to 41.5° • Exposure time: 90 seconds • Others: Measurement of intensity and geometric parameters with a V A NTEC-500 gas area detector (Bruker, USA) 9. High-Resolution X-Ray Diffraction (XRD) Analysis
Thermogravimetric analysis coupled with mass spectroscopy for the crystalline form was performed under the following conditions. • Manufacturer: Mettler-Toledo GmbH, Switzerland • Model: TGA/DSC 3+ STARe system • Temperature range: 25 to 300° C. • Temperature rise rate: 10° C./min • Mass spectrometer: mass spectrometer Omnistar GSD 301 T2 (Pfeiffer Vacuum GmbH, Germany) 11. Differential Scanning Calorimetry (DSC) Analysis
The calorimetric analysis of the crystalline form was performed by differential scanning calorimetry (DSC) under the following conditions. • Manufacturer: Metter Toredo GmbH, Switzerland • Model: heat flux DSC3+ STARe system • Temperature rise rate: 10° C./min • Temperature range: 25 to 300° C. • N2 flow rate: 50 ml/min. 12. Karl Fischer Titration Analysis
The mass of the crystalline form was measured by ultra-performance liquid chromatography-mass spectrometer (UPLC-MS) under the following conditions. • Manufacturer: Agilent, USA • Model: Agilent 1290 • Detector 1: UV detector set at 224 nm • Detector 2: MSD XT in Positive Scan Mode • Measurement temperature: 25° C. (RT) • Column: Agilent Eclipse Plus C18 HD (50×2.1 mm; 1.8 μm) • Column temperature: 35° C. • Flow cell: 10 mm path • Gradient: Mobile phase A: 10 mM Ammonium acetate/Mobile phase B: Acetonitrile • Flow: 0.8 ml/min • Sample concentration: 0.8 mg/ml • Solvent: Water: Acetonitrile (50:50 v/v) • Injection: 1 μl • Retention time: 1.54 min 15. Analysis of Particle Size Distribution (PSD)
Crystalline form 3 of (−)-cibenzoline succinate prepared according to Example 4 was stored at 60° C. for 4 weeks, and then the long-term storage stability thereof was evaluated by HT-XRPD, DSC, TGMS and UPLC analysis.

[2] = Dynamic vapor sorption (DVS) analysis
Procedure: Dynamic vapor sorption was measured using a vapor sorption analyzer under the following conditions. • Manufacturer: Surface Measurement Systems Ltd, UK • Model: DVS Adventure-I system • Analysis of crystalline form of obtained solid: HT-XRPD Relative Humidity Cycle:
Relative humidity was cycled from 40% to 95% (sorption), from 95% to 0% (desorption) and back to 40% (sorption 2). In each step, the relative humidity was changed to 10% at a constant temperature of 25° C. The weight equilibrium was set to a dm/dt of 0.002%/min.
Dynamic vapor sorption data (water sorption isotherms) were measured by a vapor sorption analyzer.

[3] = Accelerated storage stability test (48-hour, accelerated aging conditions); conditions: 48-hour storage, AAC 40° C./75% RH
Procedure: For the crystalline and amorphous forms of (−)-cibenzoline succinate prepared according to Examples 1 to 4 above, a 48-hour storage stability test was performed under accelerated aging conditions (AAC; 40° C./75% RH).

[4] = Particle size analysis by laser diffraction particle analyzer; conditions: dispersant heptane
Procedure: The particle size of the crystalline form was measured with a laser diffraction particle size analyzer under the following conditions. • Manufacturer: Malvern Instruments Limited, UK • Model: Mastersizer 2000 • Sampler: Hydro 2000 G/S Instrumental Conditions: • Particle reflection index (RI)): 1.52 • Dispersant: heptane • Absorbance: 0.1 • Refractive index of dispersant: 1.39 • Analysis model: general purpose • Sensitivity: enhanced • Absorption limit: 10-15% • Measurement time: 30 seconds (repeated three times per sample) • Agitation speed: 3500 RPM Sample Preparation:
About 150 mg of the sample was dissolved in 20 ml of 0.2% Span 85-containing heptane in a 50 ml beaker. The solution was sonicated for about 10 seconds and placed in a sampler, and when the absorption limit reached 10 to 15%, measurement was performed.
The particle size of crystalline form 3 of (−)-cibenzoline succinate prepared according to Example 4 was measured by a laser diffraction particle analyzer.

[5] = default reference value (before storage)

## O=C(O)CCC(=O)O.c1ccc(C2(c3ccccc3)C[C@@H]2C2=NCCN2)cc1 [Crystalline form 3, (−)-cibenzoline succinate]
[1]; [5]
  Chemical purity: 100%
  DSC: 193.2 °C
  TGA mass loss rate: 0.6%
[1]; stored at 60° C. for 4 weeks
  Long-term storage stability (crystalline form and chemical purity): stable without changes in the crystalline form and chemical purity
[1]; stored at 60° C., week 1
  Chemical purity: 100%
  DSC: 191.2 °C
  TGA mass loss rate: 0.2%
[1]; stored at 60° C., week 4
  Chemical purity: 100%
  DSC: 191.1 °C
  TGA mass loss rate: 0.6%
[2]; 25° C., 80% relative humidity
  water absorption rate at 80% relative humidity: 0.2%
[2]; 25° C., relative humidity 0% back to 40%
  water absorbed in sorption 2: absorbed almost no water
[2]; 25° C., relative humidity 40% to 95%
  water absorption rate in the sorption cycle: up to 0.3%
[2]; 25° C., relative humidity 95% to 0%
  release of absorbed water in the desorption cycle: completely released
[2]; after DVS cycle
  crystalline form of sample obtained after DVS (HT-XRPD): maintained in Form D
[2]; based on water absorption at 80% relative humidity
  Hygroscopicity classification (European Pharmacopeia 5.0, 5.11): non-hygroscopic; also recorded: non-hydroscopic
[3]
  Accelerated storage stability: Stable - presence of only
[3]; listed as crystalline form 3
  Accelerated storage stability: stable
[4]
  D10: 8.80 μm
  D50: 30.44 μm
  D90: 60.72 μm
[4]; listed as crystalline form 3
  D50: 30.44 μm

## O=C(O)CCC(=O)O.c1ccc(C2(c3ccccc3)C[C@@H]2C2=NCCN2)cc1 [Crystalline form 2, (−)-cibenzoline succinate]
[3]
  Accelerated storage stability: Unstable - presence of different

## O=C(O)CCC(=O)O.c1ccc(C2(c3ccccc3)C[C@@H]2C2=NCCN2)cc1 [Reference Example, (−)-cibenzoline succinate]
[4]
  D10: 17.10 μm
  D50: 127.82 μm
  D90: 307.56 μm

## O=C(O)CCC(=O)O.c1ccc(C2(c3ccccc3)C[C@@H]2C2=NCCN2)cc1 [Amorphous, (−)-cibenzoline succinate]
[3]
  Accelerated storage stability: Unstable - presence of different

## O=C(O)CCC(=O)O.c1ccc(C2(c3ccccc3)C[C@@H]2C2=NCCN2)cc1 [Crystalline form 1, (−)-cibenzoline succinate]
[3]
  Accelerated storage stability: Unstable - presence of different
